# Where two headings read alike, the source gives them in different places.
# Key:
# [1] = molecular target: recombinant human Myt1 (full length PKMYT1) (Homo sapiens (Human), UniProt Q99640); assay: Recombinant human Myt1 kinase assay (ADP-Glo); assay type: biochemical; conditions: 10 μM ATP
# Summary of the method: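 Full-length insect-cell-expressed human Myt1 (18 nM final) was preincubated with compound (0.5% DMSO) for 15 min at 22 °C. The reaction ran with 10 μM ATP for 60 min at 30 °C in HEPES buffer with Mg2+/Mn2+ and DTT. ADP formed was read by ADP-Glo luminescence, giving IC50 and % max inhibition.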
# [2] = tested on: PKMYT1 (CDK1 pThr14) in FUOV1 cells; assay: PKMYT1 cell-based activity assay, CDK1 pThr14 AlphaLISA in FUOV1 cells; conditions: read-out: FUOV-1 CDK1 pThr14 IC50
# Summary of the method: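 FUOV1 cells were treated with PKMYT1 inhibitor for 2 h at 37 °C, then lysed. CDK1 pThr14 was measured by AlphaLISA, pairing an anti-pThr14 antibody with an anti-total CDK1 antibody (5 nM each). Signal read at 680/615 nm and used to derive IC50.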
# Sequence of recombinant human Myt1 (full length PKMYT1) (Q99640 whole entry): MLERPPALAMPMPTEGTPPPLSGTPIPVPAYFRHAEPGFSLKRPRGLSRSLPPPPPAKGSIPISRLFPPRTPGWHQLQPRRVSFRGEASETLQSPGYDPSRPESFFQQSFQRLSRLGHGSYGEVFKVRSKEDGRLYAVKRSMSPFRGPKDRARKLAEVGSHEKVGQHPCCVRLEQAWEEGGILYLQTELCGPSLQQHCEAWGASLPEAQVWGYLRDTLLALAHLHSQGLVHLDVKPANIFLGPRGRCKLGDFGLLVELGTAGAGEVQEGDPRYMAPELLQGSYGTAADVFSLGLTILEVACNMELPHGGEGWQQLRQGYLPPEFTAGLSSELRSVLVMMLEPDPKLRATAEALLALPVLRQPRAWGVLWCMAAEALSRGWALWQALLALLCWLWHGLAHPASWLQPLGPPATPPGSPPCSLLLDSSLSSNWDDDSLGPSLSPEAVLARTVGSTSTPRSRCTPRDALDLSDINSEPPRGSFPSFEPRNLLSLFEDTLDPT
SMILES,IC50 [1] [nM],"IC50 ([2]; 2 h, 2 hours with compound) [nM]","IC50 ([2]; 2 h, 2 h compound incubation) [nM]","IC50 ([2]; 2 h, 2 h incubation) [nM]",IC50 ([2]; 2 h incubation) [nM]
Cc1ccc2[nH]ncc2c1-c1nc(-c2cccc3c2NCCO3)nc(C(N)=O)c1N [Compound 852],17,502,,,
Cc1ccc2[nH]ncc2c1-c1nc(-c2ccc(F)cc2Nc2ncccc2C#N)nc(C(N)=O)c1N [Compound 613],4,,6,,
COC[C@@H](C)Oc1nccc(-c2cc(-c3c(C)ccc4[nH]ncc34)c(N)c(C(N)=O)n2)n1 [Compound 204],6,,,205,
CNc1ccccc1-c1nc(C(N)=O)c(N)c(-c2c(C)ccc3[nH]ncc23)n1 [Compound 365],28,,,774,
Cc1ccc2[nH]ncc2c1-c1nc(-c2ccccc2NC(=O)C2CCOCC2)nc(C(N)=O)c1N [Compound 424],4,,81,,
COc1cccc(-c2cc(-c3c(C)ccc(O)c3C)c(N)c(C(N)=O)n2)n1 [Compound 62],8,,,117,
Cc1nc2cccc(-c3nc(C(N)=O)c(N)c(-c4c(C)ccc5[nH]ncc45)n3)c2s1 [Compound 389],8,,,433,
Cc1ccc2[nH]ncc2c1-c1nc(-c2cc(F)ccc2NC(=O)C2(C)CC2)nc(C(N)=O)c1N [Compound 447],3,,5,,
Cc1ccc2[nH]ncc2c1-c1cc(-c2csc(OC3COC3)n2)nc(C(N)=O)c1N [Compound 224],40,,,252,
Cc1ccc2[nH]ncc2c1-c1nc(-c2ccccc2NC(=O)C2(Cl)CC2)nc(C(N)=O)c1N [Compound 441],4,,8,,
Cc1ccc2[nH]ncc2c1-c1cc(-c2cncs2)nc(C(N)=O)c1N [Compound 85],22,,,1450,
NC(=O)c1nc(-c2ccccn2)cc(-c2cccc3[nH]ncc23)c1N [Compound 70],29,,,1470,
Cc1ccc(O)cc1-c1nc(-c2ccc(C(F)(F)F)cc2)nc(C(N)=O)c1N [Compound 7],31,,,737,
Cc1ccc2[nH]ncc2c1-c1cc(-c2ccnc(OCCO)n2)nc(C(N)=O)c1N [Compound 299],13,,,232,
Cc1ccc2[nH]ncc2c1-c1nc(-c2cccnc2NC(C)(C)C2CCCO2)nc(C(N)=O)c1N (centres unmarked) [Compound 881],< 3,789,,,
Cc1ccc2[nH]ncc2c1-c1nc(-c2cn(C)nc2NC2CCCC2)nc(C(N)=O)c1N [Compound 900],6,46,,,
Cc1ccc(O)c(C)c1-c1cc(Cl)nc(C(N)=O)c1N [Compound 17],36,,,8670,
"Cc1ccc2[nH]ncc2c1-c1nc(-c2cccnc2NS(C)(=O)=O)nc(C(N)=O)c1N [Compound 804, 5-amino-6-(5-methyl-1H-indazol-4-yl)-2-(2-(methylsulfonamido)pyridin-3-yl)pyrimidine-4-carboxamide]",8,62,,,
Cc1ccc2[nH]ncc2c1-c1nc(-c2ccc(F)cc2Nc2cc(C3CC3)ncn2)nc(C(N)=O)c1N [Compound 615],16,,515,,
Cc1ccc2[nH]ncc2c1-c1nc(-c2ccccc2NC(=O)[C@@]2(C)CCCN2)nc(C(N)=O)c1N [Compound 431],8,,5,,
"Cc1ccc2[nH]ncc2c1-c1cc(-c2cccc(OCc3ncco3)n2)nc(C(N)=O)c1N (atropisomer, axis not shown) [Compound 273]",716,,,,4560
Cc1ccc(-c2nc(C(N)=O)c(N)c(-c3c(C)ccc4[nH]ncc34)n2)c(NC(=O)C2(C)CC2)c1 [Compound 433],5,,13,,
Cc1ccc2[nH]ncc2c1-c1nc(-c2cccnc2Nc2ccnn2C2CC2)nc(C(N)=O)c1N [Compound 885],176,> 10000,,,

SMILES,IC50 [1] [nM],"IC50 ([2]; 2 h, 2 hours with compound) [nM]","IC50 ([2]; 2 h, 2 h compound incubation) [nM]","IC50 ([2]; 2 h, 2 h incubation) [nM]",IC50 ([2]; 2 h incubation) [nM]
Cc1ccc2[nH]ncc2c1-c1nc(-c2ccccc2)nc(C(N)=O)c1N [Compound 65],22,,,1070,
Cc1ccc2[nH]ncc2c1-c1nc(-c2cccnc2N)nc(C(N)=O)c1N [Compound 469],12,,540,,
Cc1ccc2[nH]ncc2c1-c1cc(-c2cccnn2)nc(C(N)=O)c1N [Compound 191],42,,,390,
Cc1ccc2[nH]ncc2c1-c1nc(-c2ccccc2N[C@@H](C)C(F)(F)F)nc(C(N)=O)c1N [Compound 429],4,,36,,
Cc1ccc2[nH]ncc2c1-c1cc(-c2cccc(OCc3cccnn3)n2)nc(C(N)=O)c1N [Compound 242],7,,,243,
Cc1ccc2[nH]ncc2c1-c1cc(-c2ccnc(OC3(C)COC3)n2)nc(C(N)=O)c1N [Compound 220],4,,,150,
Cc1ccc2[nH]ncc2c1-c1cc(-c2cnccn2)nc(C(N)=O)c1N [Compound 190],20,,,860,
Cc1ccc2[nH]ncc2c1-c1nc(-c2cc(F)c(F)cc2NCC(F)F)nc(C(N)=O)c1N [Compound 467],6,,106,,
Cc1ccc2[nH]ncc2c1-c1cc(-c2cccc(OCCN3CCOCC3)n2)nc(C(N)=O)c1N [Compound 185],7,,,369,
Cc1cncnc1Nc1cc(F)ccc1-c1nc(C(N)=O)c(N)c(-c2c(C)ccc3[nH]ncc23)n1 [Compound 617],4,,7,,
CCC(COc1nccc(-c2cc(-c3c(C)ccc4[nH]ncc34)c(N)c(C(N)=O)n2)n1)OC (centres unmarked) [Compound 302],4,,,23,
Cc1ccc2[nH]ncc2c1-c1nc(-c2ccccc2Nc2ccc(F)cn2)nc(C(N)=O)c1N [Compound 450],8,,121,,
Cc1ccc(O)c(C)c1-c1cc(-c2cccc(OC3CCOCC3)n2)nc(C(N)=O)c1N [Compound 94],2,,,,31
Cc1ccc(-c2cc(-c3c(C)ccc(O)c3C)c(N)c(C(N)=O)n2)nc1 [Compound 40],4,,,208,
Cc1ccc(O)c(C)c1-c1cc(-c2ccco2)nc(C(N)=O)c1N [Compound 50],6,,,368,
Cc1ccc2[nH]ncc2c1-c1nc(-c2ccns2)nc(C(N)=O)c1N [Compound 109],23,,,717,
"Cc1ccc2[nH]ncc2c1-c1nc(-c2ccncc2NC(=O)C(C)(C)C)nc(C(N)=O)c1N [Compound 483, 5-amino-6-(5-methyl-1H-indazol-4-yl)-2-(3-pivalamidopyridin-4-yl)pyrimidine-4-carboxamide]",2,,2,,
Cc1ccc2[nH]ncc2c1-c1nc(-c2cccc3cnsc23)nc(C(N)=O)c1N [Compound 396],5,,152,,
Cc1ccc2[nH]ncc2c1-c1cc(-c2ccnc(OCC3CCCO3)n2)nc(C(N)=O)c1N (centres unmarked) [Compound 211],7,,,184,
Cc1ccc2[nH]ncc2c1-c1nc(-c2nccs2)nc(C(N)=O)c1N [Compound 108],79,,,7400,
Cc1ccc2[nH]ncc2c1-c1cc(-c2ccnc(OC3COC3)n2)nc(C(N)=O)c1N [Compound 161],7,,,122,
CC(=O)Nc1ccccc1-c1nc(C(N)=O)c(N)c(-c2c(C)ccc3[nH]ncc23)n1 [Compound 320],6,,,19,
Cc1ccc2[nH]ncc2c1-c1nc(-c2ccccc2C(F)F)nc(C(N)=O)c1N [Compound 414],122,,2460,,

# Source: patent US20250304537A1 (Repare Therapeutics Inc., priority 2022, published 2025)
